These compounds were tested against T1, MAGL (Homo sapiens, UniProt Q99685) (assay: 2-AG assay (MAGL inhibitory activity, hydrolysis of 2-arachidonoylglycerol to arachidonic acid followed by mass spectrometry)). Details: 8 μM 2-arachidonoylglycerol, 15 min pre-incubation, 30 min incubation at RT, RapidFire MS readout.
T1 sequence (Q99685 1-303): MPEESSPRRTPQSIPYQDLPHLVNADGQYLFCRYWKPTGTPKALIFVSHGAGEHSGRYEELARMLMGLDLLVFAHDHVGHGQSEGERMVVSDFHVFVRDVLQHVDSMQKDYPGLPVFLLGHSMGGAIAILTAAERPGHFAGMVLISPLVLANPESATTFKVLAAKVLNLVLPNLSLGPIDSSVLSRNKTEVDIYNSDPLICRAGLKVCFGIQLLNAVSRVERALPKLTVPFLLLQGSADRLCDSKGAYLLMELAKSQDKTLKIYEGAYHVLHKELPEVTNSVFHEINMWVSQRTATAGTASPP
Assay type: biochemical
Summary of the method: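 Arachidonic acid released from 8 μM 2-arachidonoylglycerol was quantified by online SPE triple-quadrupole MS (negative ESI, 303.1→259.1), normalised to d8-arachidonic acid internal standard. Reaction ran 30 min at RT after 15 min RT compound pre-incubation with […] MAGL in TRIS/EDTA/Tween-20 buffer, 2.5% DMSO.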

SMILES	IC50 [µM]
O=C(N1CC2(CC(Oc3cncc(Cl)c3)C2)C1)N1CC2(CC(n3cnc(C4CC4)n3)C2)C1 [Example 82, (6-((5-chloropyridin-3-yl)oxy)-2-azaspiro[3.3]heptan-2-yl)(6-(3-cyclopropyl-1H-1,2,4-triazol-1-yl)-2-azaspiro[3.3]heptan-2-yl)methanone]	0.0037
O=C(N1CC2(CCN(Cc3ccc(C(F)(F)F)cn3)CC2)C1)N1CC2(CC(n3cnc(C4CC4)n3)C2)C1 [Example 463, [6-(3-cyclopropyl-1,2,4-triazol-1-yl)-2-azaspiro[3.3]heptan-2-yl]-[7-[[5-(trifluoromethyl)-2-pyridyl]methyl]-2,7-diazaspiro[3.5]nonan-2-yl]methanone]	0.00242
O=C(N1CC2(CC(n3cnc(C4CC4)n3)C2)C1)C12CCC(COCC3(C(F)(F)F)CC3)(CC1)C2 [compound 161, [6-(3-cyclopropyl-1,2,4-triazol-1-yl)-2-azaspiro[3.3]heptan-2-yl]-[4-[[1-(trifluoromethyl)cyclopropyl]methoxymethyl]norbornan-1-yl]methanone]	0.184
CC1(COc2ncc(C(=O)N3CC4(CC(n5cnc(C6CC6)n5)C4)C3)cc2F)CC1 [Example 29, [6-(3-cyclopropyl-1,2,4-triazol-1-yl)-2-azaspiro[3.3]heptan-2-yl]-[5-fluoro-6-[(1-methylcyclopropyl)methoxy]-3-pyridyl]methanone]	0.0522
O=C(N1CC(C23CC(c4nnc(CC(F)(F)F)o4)(C2)C3)C1)N1CC2(CC(n3cnc(C4CC4)n3)C2)C1 [Example 435, [6-(3-cyclopropyl-1,2,4-triazol-1-yl)-2-azaspiro[3.3]heptan-2-yl]-[3-[3-[5-(2,2,2-trifluoroethyl)-1,3,4-oxadiazol-2-yl]-1-bicyclo[1.1.1]pentanyl]azetidin-1-yl]methanone]	0.00769
O=C(N1CC2(CC(Oc3cc(F)ccc3F)C2)C1)N1CC2(CC(n3cnc(C4CC4)n3)C2)C1 [Example 79, (6-(3-cyclopropyl-1H-1,2,4-triazol-1-yl)-2-azaspiro[3.3]heptan-2-yl)(6-(2,5-difluorophenoxy)-2-azaspiro[3.3]heptan-2-yl)methanone]	0.0013
O=C(N1CC2(CC(Cc3cnc(C(F)(F)F)nc3)C2)C1)N1CC2(CC(n3cnc(C4(O)CC4)n3)C2)C1 [Example 410, [6-[3-(1-hydroxycyclopropyl)-1,2,4-triazol-1-yl]-2-azaspiro[3.3]heptan-2-yl]-[6-[[2-(trifluoromethyl)pyrimidin-5-yl]methyl]-2-azaspiro[3.3]heptan-2-yl]methanone]	0.0249
CC(C)(C)c1nc(-c2ccc(C(=O)N3CC4(CC(n5cnc(C(F)(F)F)n5)C4)C3)cc2)no1 [Example 4, (4-(5-(tert-butyl)-1,2,4-oxadiazol-3-yl)phenyl)(6-(3-(trifluoromethyl)-1H-1,2,4-triazol-1-yl)-2-azaspiro[3.3]heptan-2-yl)methanone]	0.0114
NS(=O)(=O)c1ccccc1CN1CC2(C1)CN(C(=O)N1CC3(CC(n4cnc(C5CC5)n4)C3)C1)C2 [Example 257, 2-[[2-[6-(3-cyclopropyl-1,2,4-triazol-1-yl)-2-azaspiro[3.3]heptane-2-carbonyl]-2,6-diazaspiro[3.3]heptan-6-yl]methyl] benzenesulfonamide]	0.018
O=C(N1CC2(CC(Oc3cncc(F)c3)C2)C1)N1CC2(CC(n3cnc(C4CC4)n3)C2)C1 [Example 63, (6-(3-cyclopropyl-1H-1,2,4-triazol-1-yl)-2-azaspiro[3.3]heptan-2-yl)(6-((5-fluoropyridin-3-yl)oxy)-2-azaspiro[3.3]heptan-2-yl)methanone]	0.0198
CC(C)(C)c1nc(-c2ccc(C(=O)N3CC4(CC(n5ncc6c5CCCC6)C4)C3)cc2)no1 [Example 22, [4-(5-tert-butyl-1,2,4-oxadiazol-3-yl)phenyl]-[6-(4,5,6,7-tetrahydroindazol-1-yl)-2-azaspiro[3.3]heptan-2-yl]methanone]	0.451
O=C(N1CC(NCc2ccc(C(F)(F)F)cc2Cl)C1)N1CC2(CC(c3ccc(C(F)(F)F)nc3)C2)C1 [Example 531]	1.3
O=C(N1CC2(CC(n3cnc(C4(O)CC4)n3)C2)C1)N1CC2(CCN(Cc3ccc(S(=O)(=O)C(F)(F)F)cc3)C2)C1 [Example 369, [6-[3-(1-hydroxycyclopropyl)-1,2,4-triazol-1-yl]-2-azaspiro[3.3]heptan-2-yl]-[7-[[4-(trifluoromethylsulfonyl)phenyl]methyl]-2,7-diazaspiro[3.4]octan-2-yl]methanone]	0.0493
N#Cc1cc(C2CC2)ccc1OC1CN(C(=O)N2CC3(CC(n4cnc(C5CC5)n4)C3)C2)C1 [Example 188, 5-cyclopropyl-2-[1-[6-(3-cyclopropyl-1,2,4-triazol-1-yl)-2-azaspiro[3.3]heptane-2-carbonyl]azetidin-3-yl]oxy-benzonitrile]	0.0002

Now from value to compound:

IC50 [µM]	SMILES
0.0004	O=C(N1CC(c2cc(F)c(OC(F)(F)F)c(F)c2)C1)N1CC2(CC(n3cnc(C4CC4)n3)C2)C1 [Example 85, [6-(3-cyclopropyl-1,2,4-triazol-1-yl)-2-azaspiro[3.3]heptan-2-yl]-[3-[3,5-difluoro-4-(trifluoromethoxy)phenyl]azetidin-1-yl]methanone]
0.0002	O=C(N1CC2(CC(Oc3ccc(F)cc3Cl)C2)C1)N1CC2(CC(n3cnc(C4CC4)n3)C2)C1 [Example 45, [6-(2-chloro-4-fluoro-phenoxy)-2-azaspiro[3.3]heptan-2-yl]-[6-(3-cyclopropyl-1,2,4-triazol-1-yl)-2-azaspiro[3.3]heptan-2-yl]methanone]
0.002	O=C(N1CC(c2ccc(N3CC[C@@](O)(C(F)(F)F)C3)nc2)C1)N1CC2(CC(n3cnc(C4CC4)n3)C2)C1 [Example 216]
0.17	O=C(N1CC2(CCC(Cc3ccc(C(F)(F)F)nc3)C2)C1)N1CC2(CC(c3ccc(C(F)(F)F)nc3)C2)C1 (stereo not shown) [Example 535, [6-[6-(trifluoromethyl)-3-pyridyl]-2-azaspiro[3.3]heptan-2-yl]-[6-[[6-(trifluoromethyl)-3-pyridyl]methyl]-2-azaspiro[3.4]octan-2-yl]methanone]
0.0441	O=C(N1CC(C23CC(c4nnc(C5CC5)[nH]4)(C2)C3)C1)N1CC2(CC(n3cnc(C(F)(F)F)n3)C2)C1 [Example 433, [3-[3-(5-cyclopropyl-4H-1,2,4-triazol-3-yl)-1-bicyclo[1.1.1]pentanyl]azetidin-1-yl]-[6-[3-(trifluoromethyl)-1,2,4-triazol-1-yl]-2-azaspiro[3.3]heptan-2-yl]methanone]
0.0005	O=C(N1CC2(CC(Cc3ncc(F)cc3F)C2)C1)N1CC2(CC(n3cnc(C4CC4)n3)C2)C1 [Example 199, [6-(3-cyclopropyl-1,2,4-triazol-1-yl)-2-azaspiro[3.3]heptan-2-yl]-[6-[(3,5-difluoro-2-pyridyl)methyl]-2-azaspiro[3.3]heptan-2-yl]methanone]
0.0162	O=C(N1CCC(CNS(=O)(=O)c2ccc(C(F)(F)F)cc2)CC1)N1CC2(CC(n3cnc(C4CC4)n3)C2)C1 [Example 253]
0.0022	O=C(N1CC2(CC(Oc3ccc(C(F)(F)F)nc3)C2)C1)N1CC2(CC(n3cnc(C4CC4)n3)C2)C1 [Example 80, (6-(3-cyclopropyl-1H-1,2,4-triazol-1-yl)-2-azaspiro[3.3]heptan-2-yl)(6-((6-(trifluoromethyl)pyridin-3-yl)oxy)-2-azaspiro[3.3]heptan-2-yl)methanone]
0.381	CS(=O)(=O)c1ccc(-c2ccc(C3CN(C(=O)N4CC5(CC(c6ccc(C(F)(F)F)nc6)C5)C4)C3)cn2)c(Cl)c1 [Example 538, [3-[6-(2-chloro-4-methylsulfonyl-phenyl)-3-pyridyl]azetidin-1-yl]-[6-[6-(trifluoromethyl)-3-pyridyl]-2-azaspiro[3.3]heptan-2-yl]methanone]
0.359	CC(C)(C)Cn1nncc1-c1ccc(C2CN(C(=O)N3CC4(CC(n5cncn5)C4)C3)C2)cc1 [Example 417, [3-[4-[3-(2,2-dimethylpropyl)triazol-4-yl]phenyl]azetidin-1-yl]-[6-(1,2,4-triazol-1-yl)-2-azaspiro[3.3]heptan-2-yl]methanone]
0.331	O=C(N1CCC(NS(=O)(=O)c2ccc(C(F)(F)F)cc2)CC1)N1CC2(CC(n3cnc(C4CC4)n3)C2)C1 [Example 321, N-[1-[6-(3-cyclopropyl-1,2,4-triazol-1-yl)-2-azaspiro[3.3]heptane-2-carbonyl]-4-piperidyl]-4-(trifluoromethyl) benzenesulfonamide]
0.0119	CC(C)(C)Cn1nncc1-c1ccc(C2CN(C(=O)N3CC4(C3)CN(c3cncc(F)c3)C4)C2)cc1 [Example 349, [3-[4-[3-(2,2-dimethylpropyl)triazol-4-yl]phenyl]azetidin-1-yl]-[6-(5-fluoro-3-pyridyl)-2,6-diazaspiro[3.3]heptan-2-yl]methanone]
3.19	CNC(=O)C(c1ccc(F)cc1)N1CCN(C(=O)N2CC3(CC(n4cnc(C5CC5)n4)C3)C2)CC1 (stereo not shown) [Example 340, 2-[4-[6-(3-cyclopropyl-1,2,4-triazol-1-yl)-2-azaspiro[3.3]heptane-2-carbonyl]piperazin-1-yl]-2-(4-fluorophenyl)-N-methyl-acetamide]
0.402	O=C(O)c1ccc(S(=O)(=O)N2CC3(CN(C(=O)N4CC5(CC(n6cnc(C7CC7)n6)C5)C4)C3)C2)cc1 [Example 324]
